In patent publication US9828357B2, “Cyclic compounds” (Takeda Pharmaceutical Company Limited, priority 2015, dated 2017):

How the values were obtained:
[1] = test system: oxaliplatin induced-neuropathic pain model mouse; experiment: Analgesic action on oxaliplatin induced-neuropathic pain model mouse; format: in vivo; settings: C57BL/6N mice, 1 week after oxaliplatin 0.3 mg/kg i.p., mean ± standard error
Procedure: Oxaliplatin was diluted with saline by the predetermined concentration, and administered intraperitoneally to mice (C57BL/6N, male, 8 weeks old) at 0.3 mg/kg. The test compound was dissolved in 10% captisol or 10% captisol containing 0.1% N-methyl-2-pyrrolidone. The compound was administered intravenously (0.1-10 mg/kg body weight) to the mice immediately before intraperitoneal administration of various anticancer drugs. The pain threshold was measured 1 week after oxaliplatin administration. The pain threshold was evaluated as a weighted value (gram) showing pseudo-escape reaction, when the footpad of the right hind limb was pressed using balance type pressurizing device (Ugo Basile). The values in the table show the mean±standard errors of the weighted values.

[2] = test system: TLR4 signal; experiment: Inhibitory effect on TNFα production from HMGB-1 stimulated human Kupffer cell; format: cell-based; settings: human primary Kupffer cells, HMGB-1 10 μg/mL, 24 hr
Procedure: TLR4 signal inhibitory activity in human Kupffer cell was evaluated as an inhibition rate of the test compound for TNFα produced by addition of HMGB-1 (SHINO-TEST), using human primary Kupffer cells (Cat# HUKCCS, Lot#HK8226) purchase from GIBCO. Cell suspension prepared in RPMI 1640-Gluta MAX™ medium supplemented with 10% inactivated bovine fetal serum was plated in 96-well I-type collagen-coated plate so as to contain 3.1×10^4 cells/100 μL/well. Then, the cells were cultured for 6 hr at 37° C. under 5% CO2/95% air to be adhered to the bottom of the plate. The non-adhered cells were rinsed off with PBS, and the test compound dissolved in DMSO was added to the adhered cells (final concentration: 1, 10, 100 nM), and the mixture was cultured for 1 hr. Then, HMGB-1 was added thereto (final concentration: 10 μg/mL), and the mixture was incubated for additional 24 hr. TNFα production amount contained in the culture supernatant was quantified by ELISA method (R&D systems). TNFα production inhibition rate (%) was calculated using the value under the HMGB-1-free condition as control of 100% inhibition and the value under the compound-free condition as control of 0% inhibition.

[3] = test system: blood TNFα; experiment: Effect on blood TNF-α concentration elevation by LPS stimulation; format: in vivo; settings: female BALB/c mice; 3 mg/kg intravenously 1 h before LPS 5 mg/kg i.p.; serum 1 h after LPS; vs control group
Procedure: Various kinds of cytokines are produced in vivo accompanying inflammatory response and abnormal immunity or the like. Therefore, the action of test compound with respect to blood TNFα concentration rise was investigated using laboratory animals.
Female BALB/c mice (6 weeks old) were purchased, and, after preliminary rearing for about 1 week, the mice were divided into groups of four animals. The test compound was dissolved in 10% captisol aqueous solution and was intravenously administered to the test group at a dose of 3 mg/kg. Solvent was administered to control group in the same way. LPS (5 mg/kg) was administered intraperitoneally to the test group and the control group one hour after the administration of the test compound or solvent, and blood was sampled one hour later. The serum was separated from the obtained blood, and the TNFα[…]concentration in the serum was measured using an assay kit made by R&D Systems Inc. The inhibition rates of the test group with respect to the control group are shown in Table 3.

CCOC(=O)C1=CC2(CC[C@H]1S(=O)(=O)[C@H]1CCc3cccc(Cl)c31)O[C@H](CO)[C@@H](CO)O2 [Compound 6, Ethyl (2R,3R,8R)-8-(((1S)-7-chloro-2,3-dihydro-1H-inden-1-yl)sulfonyl)-2,3-bis(hydroxymethyl)-1,4-dioxaspiro[4.5]dec-6-ene-7-carboxylate]
Pain threshold (weighted value showing pseudo-escape reaction) ([1]; 1 mg/kg i.v.): 190.0 ± 46.1 gram
Pain threshold (weighted value showing pseudo-escape reaction) ([1]; 3 mg/kg i.v.): 153.3 ± 46.1 gram
Pain threshold (weighted value showing pseudo-escape reaction) ([1]; 10 mg/kg i.v.): 310.0 ± 45.6 gram
TNFα production inhibition rate (% inhibition) ([2]; compound concentration 1 nM): 45 % inhibition
TNFα production inhibition rate (% inhibition) ([2]; compound concentration 10 nM): 82 % inhibition
TNFα production inhibition rate (% inhibition) ([2]; compound concentration 100 nM): 85 % inhibition
Blood TNFα inhibition rate (% inhibition) [3]: 93.1 % inhibition
